Data published in patent US8546371B2, “Nanoparticle formulated glycolipid antigens for immunotherapy” (Board of Regents, The University of Texas System, priority 2009, dated 2013).

System: NKT cells
Test: Repeated in vivo NKT cell stimulation, serum IFN-γ by ELISA
Design: species or system C57BL/6 mice
Settings: for IFN-γ (serum): 1 μg αGalCer i.v., bled 24 hours after treatment, mean ± SD of three mice
Method: Nanoparticle containing 1 μg alpha-galactosylceramide was injected to C57BL6 mice, with non-conjugated nanoparticles as negative control. In parallel, we studied soluble form of alpha-galactosylceramide.
C57/BL6 mice were purchased from the Jackson Laboratory (Bar Arbor, Me.) and housed in M.D. Anderson Cancer Center animal facilities under standard pathogen free conditions abiding institutional guidelines. 6 weeks old C57BL/6 mice were used for all experiments. 3 mice per group were used for each experiment. 1 μg alpha-galactosylceramide, or nanoparticle formulated alpha-galactosylceramide in 200 μL PBS was intravenously injected (through tail vein) to each mouse. Mice were treated every 10 days for 3 times. 200 μL of PBS/1% DMSO was used as control.
Mice were bled at 24 hours after each drug treatment. Serum IFN-γ was measured by ELISA using a kit from BD Biosciences (San Jose, Calif.).

## CCCCCCCCCCCCCCCCCCCCCCCCCC(=O)N[C@@H](CO[C@H]1O[C@H](CO)[C@H](O)[C@H](O)[C@H]1O)[C@H](O)[C@H](O)CCCCCCCCCCCCCC [αGalCer, Alpha-galactosylceramide]
3 treatments every 10 days, i.v.
  IFN-γ secretion upon repeated stimulation (anergy of NKT cells): caused IFN-γ secretion only at the first treatment and failed to induce upon subsequent stimulations
x1 injection
  IFN-γ (serum): 2601 ± 257 pg/mL
x2 injection (every 10 days)
  IFN-γ (serum): 65 ± 2 pg/mL
x3 injection (every 10 days)
  IFN-γ (serum): 40 ± 11 pg/mL
